In brackets after ≈: the same amount, converted by molar mass. Several values for one entry are separate records, joined by “and”; a condition that tells them apart may be missing. Equal values may be shown once. Read-outs that look alike come from different tables or passages of the source. Where a SMILES comes first, the peptide text is derived from it.
Columns and labels:
[1] = system: Staphylococcus aureus ATCC 29213; test: microbe, parasite or virus in culture; details: ATCC 29213
[2] = system: Staphylococcus aureus ATCC 33591 (MRSA); test: microbe, parasite or virus in culture; details: ATCC 33591
[3] = system: Staphylococcus aureus ATCC BAA-1556 (USA300, MRSA); test: microbe, parasite or virus in culture; details: ATCC BAA-1556
five S. aureus strains = details: Mueller Hinton Broth
Experimental: Two broth mediums were used, Mueller Hinton Broth and RPMI 1640+5% fetal bovine serum. Test substances were evaluated in 11-point titrations and performed in duplicate.
The direct colony suspension method was used to prepare inoculated broth. Isolated colonies were taken from an 18-24 h culture plate. Optical density measurements (OD620nm) were used to estimate the bacterial density. […] The stock solutions were diluted by 2-fold serial titrations with their respective vehicles for a total of 11 concentrations.
A 4 μL aliquot of each dilution was added to 196 μL of broth medium seeded with the organism in wells of a sterilized 96 well polypropylene plate (Nunc™ 249949) using aluminum foil as cover. The final bacterial count was 2 to 8×10^5 CFU/mL. […] The final test article concentration range was 32 to 0.0313 μg/mL.
Each test substance dilution was evaluated in duplicate on one test occasion. […] Plates were incubated at 35-37° C. for 18 h. The test plates were visually examined and each well was visually scored for growth or complete inhibition of growth. The MIC value was recorded.

[4] = system: panel of Gram-negative or Gram-positive pathogens; details: RPMI (5% FCS); Gram-negative isolates, all but the P. aeruginosa isolates
Experimental: MICs were determined on the same plates as the FICs to increase reproducibility.
Methods: The natural AMP (termed AMP1) was modified to produce synthetic variants, AMPs 1a, 2a, 2b, 3a and 3b. Minimum inhibitory concentrations (MICs) were determined using the microbroth dilution assay with Mueller Hinton broth (MHB) or RPMI (with 5% FBS) and stability in serum was tested by conducting MICs in MHB containing 10% FBS. Synergy experiments were performed following a checkerboard protocol. Cytotoxicity was tested against HEK293 and HeLa immortalised human cell-lines using the XTT viability stain and by quantifying haemolysis of human red blood cells. Patch clamp analysis was performed using the Port-a-Patch® automated patch-clamp system on DPhPE/DPhPG (model for a Gram-negative plasma membrane) or DPhPG (Gram-positive) model membranes challenged with peptide. The murine lung infection model was performed using the agar bead model with Staphylococcus aureus strain NCTC 13616 (EMRSA-15).

EMRSA-15 lung infection = system: EMRSA-15 lung infection
Experimental: Murine EMRSA-15 lung infection model. In one embodiment this was carried out using the method described previously,^58 an overnight culture of EMRSA-15 was prepared in tryptic soy broth (TSB). EMRSA-15 was cultured in TSB overnight at 37° C., adjusted to a starting OD600 of 0.025, and grown for additional 4 h for agar beads preparation. EMRSA-15 was embedded into agar beads by mixing the overnight culture with molten tryptic soy agar, which was then spun into warmed mineral oil. The preparation was cooled and centrifuged at 2,700 g, the remaining oil was eliminated and the beads were washed in sterile PBS. The colony forming unit (cfu) content of the beads slurry was subsequently quantified on TSA plates and the beads slurry then diluted to either 2×10^7 cfu/ml in sterile PBS to deliver a final dose of either 1×10^6 cfu/mouse. Animal work was performed in accordance with the Animals (Scientific Procedures) Act of 1986 (United Kingdom). On day 0, male C57B16J mice (8-10 weeks, Charles River) were anesthetized under Isoflurane and 50 μl inoculum of EMRSA-15 embedded in agar beads (10^6 cfu/mouse) was instilled directly into the respiratory tract via oropharyngeal dosing (o.a) to reduce severity associated with surgery. Sham control mice were inoculated with sterile PBS agar beads. […] Body weight was measured daily, and animals monitored at regular intervals for signs of pain and distress. 48 hours post pulmonary infection, animals were terminally euthanized using 25% Urethane via intra-peritoneal injection. Lungs, were removed and homogenized in 2 ml PBS. Samples were serially diluted 1:10 in PBS and plated for CFU count. Lung homogenates were then centrifuged at 14000 rpm for 30 min at 4° C. and the supernatants were stored at −80° C. for future analysis. For bronchoalveolar lavage fluid collection and analysis (total and differential cell count), a 22-gauge catheter was inserted into the trachea and BAL was recovered by instillation of 0.5 ml of sterile PBS three times and total cells counts were performed by adding Turks stain in a 1:1 ratio. Total cells were then enumerated on an improved Naubauer haemocytometer. BAL fluid was then centrifuged, and supernatants were stored at −20° C. Cytospin slides were prepared and 100 μl of BAL was added into a cytospin funnel and centrifuged at 1000 rpm for 1 minute on a medium acceleration. The slides were then stained using Diff-Quick (Dade, Biomap, Italy).
More suitably Murine EMRSA-15 lung infection model was carried out using the method described previously,^58 an overnight culture of EMRSA-15 was prepared in tryptic soy broth (TSB). EMRSA-15 was cultured in TSB overnight at 37° C., adjusted to a starting OD600 of 0.025, and grown for additional 4 h for agar beads preparation. EMRSA-15 was embedded into agar beads by mixing the overnight culture with molten tryptic soy agar, which was then spun into warmed mineral oil. The preparation was cooled and centrifuged at 2,700 g, the remaining oil was eliminated, and the beads were washed in sterile PBS. The colony forming unit (CFU) content of the beads slurry was subsequently quantified on TSA plates and the beads slurry then diluted to either 2×10^7 CFU/ml in sterile PBS to deliver a final dose of either 1×10^6 CFU/mouse. Animal work was performed in accordance with the Animals (Scientific Procedures) Act of 1986 (United Kingdom). On day 0, male C57B16J mice (8-10 weeks, Charles River) were anesthetized under Isoflurane and 50 μl inoculum of EMRSA-15 embedded in agar beads (10^6 CFU/mouse) was instilled directly into the respiratory tract via oropharyngeal dosing (o.a.) to reduce severity associated with surgery. Sham control mice were inoculated with sterile PBS agar beads.

## CC(C)C[C@@H](NC(=O)[C@@H](Cc1ccc(O)cc1)NC(=O)[C@@H](Cc1c[nH]cn1)NC(=O)[C@H](NC(=O)[C@@H](CC(C)C)NC(=O)[C@@H](C)NC(=O)[C@@H](C)NC(=O)[C@@H](CCCNC(=N)N)NC(=O)CNC(=O)[C@H](NC(=O)[C@@H](Cc1c[nH]cn1)NC(=O)[C@@H](CCCNC(=N)N)NC(=O)CNC(=O)[C@H](NC(=O)[C@@H](Cc1c[nH]cn1)NC(=O)[C@@H](C)NC(=O)[C@@H](C)NC(=O)[C@@H](CCCNC(=N)N)NC(=O)[C@@H](CCCNC(=N)N)NC(=O)[C@@H](Cc1ccccc1)NC(=O)[C@@H](Cc1ccccc1)NC(=O)[C@@H](CO)NC(=O)CNC(=O)[C@@H](Cc1c[nH]c2ccccc12)NC(=O)CN)C(C)C)C(C)C)[C@H](C)O)C(N)=O [D-pleurocidin-KR] (HELM PEPTIDE1{G.[dW].G.[dS].[dF].[dF].[dR].[dR].[dA].[dA].[dH].[dV].G.[dR].[dH].[dV].G.[dR].[dA].[dA].[dL].[dT].[dH].[dY].[dL].[am]}$$$$V2.0; N-terminus assumed)
[1]
  MIC: 2 µg/mL (≈ 0.709 µM)
[2]
  MIC: 2 µg/mL (≈ 0.709 µM)
[3]
  MIC: 2 µg/mL (≈ 0.709 µM)
Five S. aureus strains
  MIC against the five tested S. aureus strains: 2 µg/mL (≈ 0.709 µM)
[4]
  effective concentration (MIC) in RPMI: ≤ 4 µg/mL
EMRSA-15 lung infection; cumulative dose 1.5 mg/kg/48h i.v.
  reduction in lung CFU: 0.9 log10
EMRSA-15 lung infection; cumulative dose 15 mg/kg/48h i.v. (three doses at 4, 24, 30 h post infection), 15 mg/kg
  reduction in lung CFU: 1.14 log10 and 1.1 log10
EMRSA-15 lung infection; cumulative dose 15 mg/kg/48h i.v. (three doses at 4, 24, 30 h post infection), listed as AMP2b, 15 mg/kg
  reduction in lung CFU: 1.14 log10
EMRSA-15 lung infection; cumulative dose of 15 or 1.5 mg/kg/48h i.v.
  weight loss over the 48-hour infection period: mitigates this weight loss
EMRSA-15 lung infection; following therapy, i.v.
  IL-6 and neutrophil recruitment in BAL: reduced
  macrophage numbers, TNFα and MCP-1 levels in BAL: No effects
EMRSA-15 lung infection; i.v., cumulative dose of 15 or 1.5 mg/kg
  tolerability in murine lung infection model: well tolerated
EMRSA-15 lung infection; lowest cumulative dose of 0.15 mg/kg i.v.
  weight loss over the 48-hour infection period: no observable effect
EMRSA-15 lung infection; lowest dose of D-pleurocidin-KR (0.15 mg/kg cumulative)
  IL-6 and neutrophil recruitment in BAL: significant reduction
EMRSA-15 lung infection; murine EMRSA-15 lung infection
  effective cumulative dose over 48 hrs: 1.5 mg/kg
EMRSA-15 lung infection; vancomycin 600 mg/kg or the two higher D-pleurocidin-KR doses (15, 1.5 mg/kg cumulative)
  mouse KC levels in BAL: KC levels to fall to that of the uninfected group
